This is an account of results in patent US20050048067A1, “Peptides capable of modulating immune response” (priority 2001, published 2005).

Like-named read-outs stand apart in the source and are kept apart here.

The subject of one test is PHA-stimulated PBMC. Put plainly: Radioactive proliferation assay, incorporation of 3H-thymidine, TIRC7-peptides. It is filed as cell-based, human. As to conditions: PHA stimulation, 48 h, 3H-thymidine incorporation. As to the method:
PBMC of healthy donors were isolated according to the Ficoll-Paque density centrifugation protocol. Samples of 50000 PBMC's/well were stimulated with PHA (1 μg/ml) and incubated for 48 h at 5% CO2, 37° C. in presence of TIRC7-peptides (see FIG. 4(B)) and controls (BSA) in a total volume of […]. Samples were run in triplicates on 96 well-microtiter-plates (MTP's). After 48 h 0.5 μCi ^3H-thymidine per well were added and the cells were reincubated for additional 18 h. Cells were harvested and lysed using a cell harvester and collected on nitrocellulose-filter-MTP's. Plates were dried at room temperature for 3 h. To enhance the radioactive signal produced by the samples a scintillation fluid was added and counts per minute were measured with a beta counter.
A general note: Incorporation of labelled thymidine or its analogues reports DNA synthesis.

The subject of a further test is activated T-cells. The following applies: alloactivation in mixed lymphocyte culture (MLR) or mitogens, Utku et al., Immunity 1998, cited from earlier work.

For the molecule “P4: TIRC7-derived peptide (FIG. 4(B)), the one of 6 without significant inhibition of proliferation (VEFQNKFYSGTGYK; listed as Homo sapiens)”, the “inhibition of proliferation of PHA-stimulated PBMC” value with PHA-stimulated PBMC (FIG. 5) is “except peptide P4 all TIRC7-peptides inhibited proliferation”; in the test with PHA-stimulated PBMC (FIG. 5, listed as SEQ ID NO: 11) it was “weaker if any activity”.

B1: TIRC7 protein: in vitro translated T-cell immune response cDNA 7 (TIRC7) protein (protein, UniProt Q13488 1-830, looked up)
V-type proton ATPase 116 kDa …: MGSMFRSEEVALVQLFLPTAAAYTCVSRLGELGLVEFRDLNASVSAFQRRFVVDVRRCEELEKTFTFLQEEVRRAGLVLPPPKGRLPAPPPRDLLRIQEETERLAQELRDVRGNQQALRAQLHQLQLHAAVLRQGHEPQLAAAHTDGASERTPLLQAPGGPHQDLRVNFVAGAVEPHKAPALERLLWRACRGFLIASFRELEQPLEHPVTGEPATWMTFLISYWGEQIGQKIRKITDCFHCHVFPFLQQEEARLGALQQLQQQSQELQEVLGETERFLSQVLGRVLQLLPPGQVQVHKMKAVYLALNQCSVSTTHKCLIAEAWCSVRDLPALQEALRDSSMEEGVSAVAHRIPCRDMPPTLIRTNRFTASFQGIVDAYGVGRYQEVNPAPYTIITFPFLFAVMFGDVGHGLLMFLFALAMVLAENRPAVKAAQNEIWQTFFRGRYLLLLMGLFSIYTGFIYNECFSRATSIFPSGWSVAAMANQSGWSDAFLAQHTMLTLDPNVTGVFLGPYPFGIDPIWSLAANHLSFLNSFKMKMSVILGVVHMAFGVVLGVFNHVHFGQRHRLLLETLPELTFLLGLFGYLVFLVIYKWLCVWAARAASAPSILIHFINMFLFSHSPSNRLLYPRQEVVQATLVVLALAMVPILLLGTPLHLLHRHRRRLRRRPADRQEENKAGLLDLPDASVNGWSSDEEKAGGLDDEEEAELVPSEVLMHQAIHTIEFCLGCVSNTASYLRLWALSLAHAQLSEVLWAMVMRIGLGLGREVGVAAVVLVPIFAAFAVMTVAILLVMEGLSAFLHALRLHWVEFQNKFYSGTGYKLSPFTFAATDD
modifications: in vitro translated
notes: in vitro translated T-cell immune response cDNA 7 (TIRC7) protein
Consider B1, for which the “suppression of proliferation of T-cells” value is “efficiently suppress in a dose dependent manner” with activated T-cells and “signifincantly suppressed” with activated T-cells (listed as protein TIRC7).
